Results reported in US20230102590A1, “USE OF POLYETHER COMPOUND” (Senju Pharmaceutical Co., Ltd., priority 2020, published 2023).
Like-named read-outs stand apart in the source and are kept apart here.

Legend:
[1] = type: physicochemical
Experimental: The solubility of a poorly soluble compound was measured by further adding a water-soluble macromolecule.
DKS Co. Ltd. • SBE-β-CD . . . MedChemExpress LLC • HP-β-CD . . . Fujifilm Wako Pure Chemical

[2] = Experimental: Fujifilm Wako Pure Chemical
The poorly soluble compound content in the recovered filtrate was measured by liquid chromatography specified below (Shimadzu (Kyoto), high performance liquid chromatograph Prominence).
As the standard product of triamcinolone acetonide, a reagent from the Pharmaceutical and Medical Device Regulatory Science Society of Japan (Japan) was used. • 50 μL of sample solution and standard solution was measured by liquid chromatography under the following conditions.
Column temperature: constant temperature of about 40° C. Mobile phase A: 0.1% trifluoroacetic acid/10% acetonitrile solution Mobile phase B: 0.1% trifluoroacetic acid/90% acetonitrile solution Delivery of mobile phase: the ratio of mixture of mobile phase A and mobile phase B was changed as follows to control the linear concentration gradient.
Detergent: 50% acetonitrile solution Flow rate: 1.0 mL/min Temperature within autosampler: 5° C.
The following conditions were tested as additives to a poorly soluble compound
wherein SA+B=solubility of a poorly soluble compound in a composition comprising poloxamer 407 and PEG 4000 SB=solubility of a poorly soluble compound in a composition comprising PEG 4000, but not poloxamer 407 SA=solubility of a poorly soluble compound in a composition comprising poloxamer 407, but not PEG 4000 S0=solubility of a poorly soluble compound in a composition that comprises neither poloxamer 407 nor PEG 4000.
The solubility in a composition of PEG and poloxamer was measured in the same manner described above for additional compounds.
For cabozantinib and telmisartan, the pH of the aqueous solution with the base composition described above was changed to 7.4. For rebamipide, the aqueous solution with the base composition was as follow. • 0.05% sodium hydrogen phosphate hydrate • 0.45% sodium dihydrogen phosphate hydrate • sodium hydroxide and hydrochloric acid (suitable amount was added to adjust the pH to 6.0)
Additional compounds were measured in the same manner described above.
Cabozantinib and telmisartan were tested with a solution adjusted to a pH of 7.4. Rebamipide was tested with a solution adjusted to a pH of 6.0. Other compounds were tested with a solution adjusted to a pH of 7.0.

[3] = Basic solubility at 25° C. in ethanol, PEG 400, propylene glycol (PG) and buffer solution; solubility ratio non-aqueous solvent / buffer solution; conditions: for Solubility ratio of solvent with respect to buffer solution Ethanol/buffer solution / Solubility ratio of solvent with respect to buffer solution PEG400/buffer solution / Solubility ratio of solvent with respect to buffer solution PG/buffer solution: buffer pH 7.0 (pH 7.4 for cabozantinib and telmisartan; pH 6.0 for rebamipide)
Experimental: In this regard, the buffer solution had the following composition: • 0.2% sodium hydrogen phosphate hydrate • 0.3% sodium dihydrogen phosphate hydrate • sodium hydroxide and hydrochloric acid (suitable amount was added to adjust the pH to 7.0; however, pH was adjusted to 7.4 for cabozantinib and telmisartan).
However, the following composition was used for rebamipide instead: • 0.05% sodium hydrogen phosphate hydrate • 0.45% sodium dihydrogen phosphate hydrate • sodium hydroxide and hydrochloric acid (suitable amount was added to adjust the pH to 6.0).
Each compound was measured in the same manner described above. In the Table, the molecular weight and Log P values are reference values (or values calculated from reference values).

[4] = reference values; pH upon measurement: rebamipide pH 7.0, telmisartan pH 7.4, cilostazol pH 7.0, aprepitant pH 7, cabozantinib pH 7.4; cited from earlier work

Row | Molecule | effect of the addition on solubility of celecoxib in PEG/poloxamer composition [1] | Solubility scale factor at 5° C. 30% PEG 4000/10% poloxamer 407 [2] | Solubility scale factor at 15° C. 30% PEG 4000/10% poloxamer 407 [2] | Solubility ratio of solvent with respect to buffer solution Ethanol/buffer solution ([3]; 25° C.) | Solubility ratio of solvent with respect to buffer solution PEG400/buffer solution ([3]; 25° C.) | Solubility ratio of solvent with respect to buffer solution PG/buffer solution ([3]; 25° C.) | Log P [4] | further results
1 | sulfobutylether-β-cyclodextrin [SBE-β-CD] | improved solubility overall |  |  |  |  |  |  | effect on dissolution of a poorly soluble compound due to poloxamer 407 and PEG 4000 [1]: further improved the dissolution
2 | CCCc1nc2c(C)cc(-c3nc4ccccc4n3C)cc2n1Cc1ccc(-c2ccccc2C(=O)O)cc1 [Telmisartan] |  | 2.03 | 1.71 | 287.77 | 431.18 | 120.32 | 3.2 | 
3 | CC1(C)O[C@@H]2C[C@H]3[C@@H]4C[C@H](F)C5=CC(=O)C=C[C@]5(C)[C@@]4(F)[C@@H](O)C[C@]3(C)[C@]2(C(=O)CO)O1 [Fluocinolone acetonide] |  | 19.75 | 18.27 | 2685.78 | 1803.78 | 2007.24 | 2.48 | Solubility, Ethanol ([3]; 25° C.): 4.635%; Solubility, PG (propylene glycol) ([3]; 25° C.): 3.224%
4 | O=C1Nc2ccc(Cl)cc2[C@@](C#CC2CC2)(C(F)(F)F)O1 [Efavirenz] |  |  |  |  |  |  | 5.40 | state of the test composition [2]: converted into gel; Solubility, PG (propylene glycol) ([3]; 25° C.): 48.3%; Solubility, Buffer solution ([3]; 25° C., phosphate buffer pH 7.0): 0.0007278%
5 | hydroxypropyl-β-cyclodextrin [HP-β-CD] | hardly improved the solubility |  |  |  |  |  |  | 
6 | O=C1CCc2cc(OCCCCc3nnnn3C3CCCCC3)ccc2N1 [Cilostazol] |  | 8.97 | 10.22 | 761.36 | 1146.93 | 761.23 | 2.76 | Solubility, PEG400 ([3]; 25° C.): 0.4342%
7 | C[C@@H](O[C@H]1OCCN(Cc2n[nH]c(=O)[nH]2)[C@H]1c1ccc(F)cc1)c1cc(C(F)(F)F)cc(C(F)(F)F)c1 [Aprepitant] |  | 1377.77 | 236.00 | 129308.39 | 60601.21 | 43995.44 | 4.8 ± 0.1 | Solubility, Ethanol [3]: 2.483%
8 | carboxymethyl cellulose [CMC] | improved solubility overall |  |  |  |  |  |  | effect on dissolution of a poorly soluble compound due to poloxamer 407 and PEG 4000 [1]: tendency to further assist dissolution
